Test results as given in patent publication US10961228B2, “JAK1 selective inhibitors” (AstraZeneca AB, priority 2017, dated 2021).

Columns and labels:
[1] = target: recombinant JAK1 (amino acids 866-1154) (Homo sapiens (Human), UniProt P23458); test: Enzyme inhibition studies, JAK1 (5 mM ATP, Caliper); format: biochemical
Experimental: (§1) JAK enzyme was expressed as N-terminal GST fusion in insect cells and purified by glutathione-affinity and size-exclusion chromatographies. Enzymes were assayed at their approximated high end of physiological ATP concentration of 5 mM, in the presence of inhibitor dosed at 30, 3, 0.3, 0.03, 0.003 and 0 μM final test concentrations.
(§2) Phosphorylated and unphosphotylated peptides were separated and quantified by a Caliper LC3000 system (Caliper Life Sciences, MA) for calculating percent inhibition.

[2] = target: recombinant JAK2 (amino acids 831-1132) (Homo sapiens (Human), UniProt O60674); test: Enzyme inhibition studies, JAK2 (5 mM ATP, Caliper); format: biochemical
Experimental: as §1, §2

[3] = target: recombinant JAK3 (amino acids 781-1124) (Homo sapiens (Human), UniProt P52333); test: Enzyme inhibition studies, JAK3 (5 mM ATP, Caliper); format: biochemical
Experimental: as §1, §2

[4] = test system: IL-13 induced STAT6 promotor luciferase reporter in U937 monocytes (U937-STAT6-Luc); test: Cellular interleukin (IL-13) induced JAK-STAT6-luciferase assay (pSTAT6); format: cell-based; details: Homo sapiens, U-937; IL-13 induced STAT6-luciferase, U937-STAT6-Luc cells
Experimental: Cells were harvested by centrifugation at 250 g for 5 min and resuspended in Assay buffer (20 mM HEPES, 1×HBSS and 0.1% BSA) to 1000 cells pr μl. For stimulation of cells was used interleukin (IL-13) also dissolved in Assay buffer to […]. […] Test and control compounds were applied to assay plates (low vol white 384-well plates) in serial dilutions from 10 mM to 0.5 nM at 5 nl pr well in DMSO.
To each well was added 4 μl cells and 4 μl interleukin (IL-13) and the plates were sealed and incubated at 37° C. for 4½ h and then at room temperature for 30 min. The assay was developed by addition of 4 μl pr well of SteadyGlo (Promega) and after […] the plates were read at an Envision plate reader with luminescence filter.

recombinant JAK3 (amino acids 781-1124), sequence (P52333 781-1124): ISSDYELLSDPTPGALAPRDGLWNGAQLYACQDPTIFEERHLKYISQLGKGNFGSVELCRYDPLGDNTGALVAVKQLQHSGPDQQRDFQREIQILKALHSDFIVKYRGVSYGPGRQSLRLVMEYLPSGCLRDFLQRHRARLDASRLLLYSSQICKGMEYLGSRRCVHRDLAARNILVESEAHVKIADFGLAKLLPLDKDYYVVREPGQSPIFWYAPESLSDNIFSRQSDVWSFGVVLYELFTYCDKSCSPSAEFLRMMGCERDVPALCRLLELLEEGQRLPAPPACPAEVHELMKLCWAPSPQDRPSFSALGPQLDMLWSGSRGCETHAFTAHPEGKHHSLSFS
recombinant JAK1 (amino acids 866-1154), sequence (P23458 866-1154): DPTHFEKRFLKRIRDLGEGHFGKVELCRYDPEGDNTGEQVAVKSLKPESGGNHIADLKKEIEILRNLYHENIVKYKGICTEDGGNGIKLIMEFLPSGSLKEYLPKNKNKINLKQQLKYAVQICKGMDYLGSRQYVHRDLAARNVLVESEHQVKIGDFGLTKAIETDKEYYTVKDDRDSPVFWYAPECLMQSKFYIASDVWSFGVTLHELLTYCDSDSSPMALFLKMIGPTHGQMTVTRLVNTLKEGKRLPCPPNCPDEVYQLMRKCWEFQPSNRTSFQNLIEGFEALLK
recombinant JAK2 (amino acids 831-1132), sequence (O60674 831-1132): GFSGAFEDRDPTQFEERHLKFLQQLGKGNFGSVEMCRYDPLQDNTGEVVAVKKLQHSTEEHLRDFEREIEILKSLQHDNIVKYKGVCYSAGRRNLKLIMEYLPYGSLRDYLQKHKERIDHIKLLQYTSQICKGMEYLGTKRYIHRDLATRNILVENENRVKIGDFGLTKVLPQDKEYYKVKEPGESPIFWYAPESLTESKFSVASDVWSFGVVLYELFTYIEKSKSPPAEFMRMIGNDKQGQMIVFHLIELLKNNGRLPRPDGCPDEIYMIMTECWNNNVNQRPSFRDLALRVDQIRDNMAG

Row | IC50 [1] [nM] | IC50 [2] [nM] | IC50 [3] [nM] | IC50 [4] [nM] | Structure (SMILES)
1 | 3.6 | 4860 | > 30000 | 90 | CC[C@H](C(=O)Nc1cccc2c(-c3nc(Nc4cccc(S(C)(=O)=O)c4F)ncc3F)c[nH]c12)N1CCCN(C)CC1 [Example 17]
2 | 348 | > 30000 | > 30000 | 1070 | CC[C@@H](C(=O)Nc1cccc2c(-c3nc(Nc4cccc(S(C)(=O)=O)c4F)ncc3F)c[nH]c12)N1CCN(C)CC1C (stereo in doubt) [Example 52, (S)-2-((R)-2,4-dimethylpiperazin-1-yl)-N-(3-(5-fluoro-2-((2-fluoro-3-(methylsulfonyl)phenyl)amino)pyrimidin-4-yl)-1H-indol-7-yl)butanamide]
3 | 986 | > 30000 | > 30000 | 2230 | COC[C@@H](C(=O)Nc1cccc2c(-c3nc(Nc4cccc(S(C)(=O)=O)c4F)ncc3C)c[nH]c12)N1C[C@H](C)N(C)[C@@H](C)C1 [Example 21, (S)-N-(3-(2-((2-fluoro-3-(methylsulfonyl)phenyl)amino)-5-methylpyrimidin-4-yl)-1H-indol-7-yl)-3-methoxy-2-((3S,5S)-3,4,5-trimethylpiperazin-1-yl)propanamide]
4 | < 3 | 162 | > 30000 | 41 | CC[C@@H](C(=O)Nc1cccc2c(-c3nc(Nc4cccc(S(C)(=O)=O)c4F)ncc3C)c[nH]c12)N1C[C@@H](C)N[C@H](C)C1 [Example 27, (S)-2-((3R,5R)-3,5-dimethylpiperazin-1-yl)-N-(3-(2-((2-fluoro-3-(methylsulfonyl)phenyl)amino)-5-methylpyrimidin-4-yl)-1H-indol-7-yl)butanamide]
5 | 1130 | > 30000 | > 30000 | > 4950 | C[C@H]1CN([C@@H](C)C(=O)Nc2cccc3c(-c4nc(Nc5cccc(S(C)(=O)=O)c5F)ncc4F)c[nH]c23)C[C@H](C)N1 [Example 12, (S)-2-((3S,5S)-3,5-dimethylpiperazin-1-yl)-N-(3-(5-fluoro-2-((2-fluoro-3-(methylsulfonyl)phenyl)amino)pyrimidin-4-yl)-1H-indol-7-yl)propanamide]
6 | < 3 | 612 | > 30000 | 24 | CC[C@H](C(=O)Nc1cccc2c(-c3nc(Nc4cccc(S(C)(=O)=O)c4F)ncc3C)c[nH]c12)N1CCN(C)CC1C (stereo in doubt) [Example 51, (R)-2-((R)-2,4-dimethylpiperazin-1-yl)-N-(3-(2-((2-fluoro-3-(methylsulfonyl)phenyl)amino)-5-methylpyrimidin-4-yl)-1H-indol-7-yl)butanamide]
7 | < 3 | 709 | > 30000 | 21 | COC[C@H](C(=O)Nc1cccc2c(-c3nc(Nc4cccc(S(C)(=O)=O)c4F)ncc3F)c[nH]c12)N1CCN(C)C[C@H]1C [Example 57, (R)-2-((R)-2,4-dimethylpiperazin-1-yl)-N-(3-(5-fluoro-2-((2-fluoro-3-(methylsulfonyl)phenyl)amino)pyrimidin-4-yl)-1H-indol-7-yl)-3-methoxypropanamide]
8 | < 3 | 1200 | > 30000 | 39.9 | COC[C@H](C(=O)Nc1cccc2c(-c3nc(Nc4cccc(S(C)(=O)=O)c4F)ncc3C)c[nH]c12)N1C[C@@H](C)N[C@H](C)C1 [Example 29, (R)-2-((3R,5R)-3,5-dimethylpiperazin-1-yl)-N-(3-(2-((2-fluoro-3-(methylsulfonyl)phenyl)amino)-5-methylpyrimidin-4-yl)-1H-indol-7-yl)-3-methoxypropanamide]
9 | < 3 | 1930 | > 30000 | 55 | COC[C@H](C(=O)Nc1cccc2c(-c3nc(Nc4cccc(S(C)(=O)=O)c4F)ncc3F)c[nH]c12)N1C[C@@H](C)N[C@H](C)C1 [Example 33, (R)-2-((3R,5R)-3,5-dimethylpiperazin-1-yl)-N-(3-(5-fluoro-2-((2-fluoro-3-(methylsulfonyl)phenyl)amino)pyrimidin-4-yl)-1H-indol-7-yl)-3-methoxypropanamide]
10 | 6.6 | 14500 | > 30000 | 57 | Cc1cnc(Nc2cccc(S(C)(=O)=O)c2F)nc1-c1c[nH]c2c(NC(=O)[C@@H](C)N3C[C@H](C)N(C)[C@@H](C)C3)cccc12 [Example 7, (R)-N-(3-(2-((2-fluoro-3-(methylsulfonyl)phenyl)amino)-5-methylpyrimidin-4-yl)-1H-indol-7-yl)-2-((3S,5S)-3,4,5-trimethylpiperazin-1-yl)propanamide]
11 | 3280 | > 30000 | > 30000 | > 6250 | COC[C@@H](C(=O)Nc1cccc2c(-c3nc(Nc4cccc(S(C)(=O)=O)c4F)ncc3F)c[nH]c12)N1C[C@H](C)N(C)[C@@H](C)C1 [Example 40]
12 | 183 | > 30000 | > 30000 | 866 | CC[C@@H](C(=O)Nc1cccc2c(-c3nc(Nc4cccc(S(C)(=O)=O)c4F)ncc3F)c[nH]c12)N1C[C@H](C)N(C)[C@@H](C)C1 [Example 23, (S)-N-(3-(5-fluoro-2-(2-fluoro-3-(methylsulfonyl)phenylamino)pyrimidin-4-yl)-1H-indol-7-yl)-2-((3S,5S)-3,4,5-trimethylpiperazin-1-yl)butanamide]

Continued, compound first:

Row | Structure (SMILES) | IC50 [1] [nM] | IC50 [2] [nM] | IC50 [3] [nM] | IC50 [4] [nM]
13 | Cc1cnc(Nc2cccc(S(C)(=O)=O)c2F)nc1-c1c[nH]c2c(NC(=O)[C@@H](COCc3ccccc3)N3CCN(C)CC3)cccc12 [Example 64, (R)-3-(benzyloxy)-N-(3-(2-((2-fluoro-3-(methylsulfonyl)phenyl)amino)-5-methylpyrimidin-4-yl)-1H-indol-7-yl)-2-(4-methylpiperazin-1-yl)propanamide] | < 30 | 910 | > 30000 | 26
14 | Cc1cnc(Nc2cccc(S(C)(=O)=O)c2F)nc1-c1c[nH]c2c(NC(=O)[C@H](C)N3C[C@H](C)N[C@@H](C)C3)cccc12 [Example 10, (S)-2-((3S,5S)-3,5-dimethylpiperazin-1-yl)-N-(3-(2-((2-fluoro-3-(methylsulfonyl)phenyl)amino)-5-methylpyrimidin-4-yl)-1H-indol-7-yl)propanamide] | 39.8 | 21000 | > 30000 | 352
15 | Cc1cnc(Nc2cccc(S(C)(=O)=O)c2F)nc1-c1c[nH]c2c(NC(=O)[C@@H](C)N3CCN(C)CC3)cccc12 [Example 2, (R)-N-(3-(2-((2-fluoro-3-(methylsulfonyl)phenyl)amino)-5-methylpyrimidin-4-yl)-1H-indol-7-yl)-2-(4-methylpiperazin-1-yl)propanamide] | ≤ 3 | 7350 | > 30000 | 32
16 | Cc1cnc(Nc2cccc(S(C)(=O)=O)c2F)nc1-c1c[nH]c2c(NC(=O)[C@@H](C)N3CCN(C)C[C@@H]3C)cccc12 [Example 58, (R)-2-((S)-2,4-dimethylpiperazin-1-yl)-N-(3-(2-((2-fluoro-3-(methylsulfonyl)phenyl)amino)-5-methylpyrimidin-4-yl)-1H-indol-7-yl)propanamide] | 48.6 | 25300 | > 30000 | 130
17 | Cc1cnc(Nc2cccc(S(C)(=O)=O)c2F)nc1-c1c[nH]c2c(NC(=O)[C@@H](C)N3CCN(CCO)CC3)cccc12 [Example 1, (R)-N-(3-(2-((2-fluoro-3-(methylsulfonyl)phenyl)amino)-5-methylpyrimidin-4-yl)-1H-indol-7-yl)-2-(4-(2-hydroxyethyl)piperazin-1-yl)propanamide] | < 3 | 1580 | > 30000 | 41
18 | C[C@H](C(=O)Nc1cccc2c(-c3nc(Nc4cccc(S(C)(=O)=O)c4F)ncc3Cl)c[nH]c12)N1CCN(C)CC1 [Example 5] | 5.1 | 5020 | > 30000 | 29
19 | Cc1cnc(Nc2cccc(S(=O)(=O)C3CC3)c2F)nc1-c1c[nH]c2c(NC(=O)[C@@H](C)N3CCN(C)CC3)cccc12 [Example 4] | < 3 | 1600 | > 30000 | 27
20 | Cc1cnc(Nc2cccc(S(C)(=O)=O)c2F)nc1-c1c[nH]c2c(NC(=O)[C@H](COCc3ccccc3)N3CCN(C)CC3)cccc12 [Example 65, (S)-3-(benzyloxy)-N-(3-(2-((2-fluoro-3-(methylsulfonyl)phenyl)amino)-5-methylpyrimidin-4-yl)-1H-indol-7-yl)-2-(4-methylpiperazin-1-yl)propanamide] | 73 | > 30000 | > 30000 | 508
21 | CCS(=O)(=O)c1cccc(Nc2ncc(C)c(-c3c[nH]c4c(NC(=O)[C@@H](C)N5CCN(C)CC5)cccc34)n2)c1F [Example 3, (R)-N-(3-(2-(3-(ethylsulfonyl)-2-fluorophenylamino)-5-methylpyrimidin-4-yl)-1H-indol-7-yl)-2-(4-methylpiperazin-1-yl)propanamide] | < 3 | 4120 | > 30000 | 39
